# In US20080118591A1, “Bactericidal Formulations” (priority 2004, published 2008):
# Like-named read-outs stand apart in the source and are kept apart here.
# Legend:
# Pseudomonas aeruginosa = assay: Rapid bactericidal activity of liquid wash formulations; assay type: cell-based
# Protocol: The above formulations are supplemented with 0.9% (w/v) of the perfume composition A of example 2. A control of each formulation is left un-perfumed. The rapid bactericidal activity of these formulations is then tested as follows: • The products are diluted 1:1 in hard water as defined in the European standard EN 1276. This mimics conditions of use on wet hands or wet surfaces in commonly used water. • 500 μl of the product is mixed with 25 μl of a bacterial inoculum containing 2×10^8 cfu/ml (colony forming units). • The mixture is incubated for 30 seconds at 37° C. • 20 μl of the mixture is removed and added to 180 μl neutralising solution (containing 3 g lecithin, 30 g Tween® 80, 5 g sodium thiosulfate, 1 g histidine, 30 g saponin, 8.5 g sodium chloride, 1 g tryptone and 1000 ml water). • The mixture with neutraliser is incubated for 1 min • Serial dilutions of the mixture with neutralising solution are made, and aliquots of these are added to Petri-dishes and embedded in tryptic soy agar containing 0.5% Tween® 80 to inactivate any residual antibacterial compounds. • Bacterial numbers are counted after 24 h incubation at 37° C. and compared to control samples. • Reduction in bacterial viability is determined as described in example 1
# The resulting formulations are tested in a 1:1 dilution for their rapid bactericidal effects after 30 seconds for Pseudomonas aeruginosa.
# Formulation IVg is supplemented as indicated in the table below with various different chelating agents instead of EDTA and is tested as described in example 5a. The resulting products are tested with 30 s contact time at a 1:1 dilution for bactericidal effects on P. aeruginosa.
# gram-negative bacteria = assay: Rapid bactericidal effect of perfume ingredients (example 1, Mueller-Hinton broth, most probable number method); assay type: cell-based; details: for rapid (30 s) bactericidal activity on gram-negative bacteria (class): 30 s contact time, 0.1% or 0.2% (w/v) in Mueller-Hinton broth
# Protocol: A sufficiently rapid bactericidal activity of a perfume ingredient against gram-negative bacteria according to the invention is determined as follows. The perfume ingredient must have a reduction factor of bacterial viability of at least 20-fold when it is tested in a concentration of 0.2% in Mueller Hinton Broth with a contact time of 30 seconds as described below. The perfume ingredient is dissolved in dimethylsulfoxide (DMSO) in a concentration of 4% (w/v). An aliquot (10 μl) of the solution is added to individual wells of microtiter plates.
# 200 μl of Mueller-Hinton broth containing a bacterial inoculum of 2.5×10^6 cfu (colony forming units) is added. After 30 s contact time, 20 μl of the test solution is removed and added to 180 μl of a neutralising solution (containing 3 g lecithin, 30 g Tween® 80, 5 g sodium thiosulfate, 1 g histidine, 30 g saponin, 8.5 g sodium chloride, 1 g tryptone and 1000 ml water). After 1 min incubation, the sample is serially diluted 1:1 in Micotiter-plates containing 100 μl Mueller-Hinton Broth per well, and then incubated for 24 h at 37° C. The maximal dilution showing bacterial growth is recorded to determine the number of surviving bacteria (so-called most probable number method, which is a well-known microbiological method), and results are compared to control samples without added perfumery chemicals. Reduction in bacterial viability is thus calculated by dividing numbers of bacteria in control samples by the number surviving in the treated samples. […].
# Test organisms Escherichia coli (ATCC 10536), Salmonella typhimurium (ATCC 13311) and Pseudomonas aeruginosa (ATCC 15442) are used. For Pseudomonas aeruginosa the test solution contains additionally 0.1% EDTA.
# A large number of commercially-available materials including a collection of 900 perfumery chemicals is tested. The materials are dissolved in dimethylsulfoxide (DMSO) in a concentration of 4% (w/v). An aliquot (5 μl or 10 μl) of each solution is added to individual wells of microtiter plates. 200 μl of Mueller-Hinton broth containing a bacterial inoculum of 2.5×10^6 cfu (colony forming units) is added. After 30 s and 60 s contact time, 20 μl of the test solution is removed and added to 180 μl of a neutralising solution (containing 3 g lecithin, 30 g Tween® 80, 5 g sodium thiosulfate, 1 g histidine, 30 g saponin, 8.5 g sodium chloride, 1 g tryptone and 1000 ml water). After 1 min incubation, the samples are serially diluted 1:1 in Micotiter-plates containing 100 μl Mueller-Hinton Broth per well, and then incubated for 24 h at 37° C. The maximal dilution showing bacterial growth is recorded to determine the number of surviving bacteria (so-called most probable number method, which is a well-known microbiological method), and results are compared to control samples without added perfumery chemicals. Reduction in bacterial viability is thus calculated by dividing numbers of bacteria in control samples by the number surviving in the treated samples.
# [1] = Pyrene 1:3 ratio (I373/I384) for micelle formation; assay type: physicochemical
# Protocol: To 100 μl of each dilution, 5 μl of a pyrene solution (0.4 mM in ethanol) is added. After equilibration, the fluorescence of the solution with an excitation at 335 nm is determined.
# To 100 μl of each dilution, 5 μl of a pyrene solution (0.4 mM in ethanol) is added. After equilibration, the fluorescence of the solution with an excitation at 335 nm is determined on an LS-50 Perkin Elmer fluorescence spectrometer.
# [2] = chelating agent added to formulation instead of EDTA, 1:1, 30 s
molecule,measurement,setting,value
"O=C(O)CN(CC(=O)O)[C@@H]1CCCC[C@H]1N(CC(=O)O)CC(=O)O (relative stereo) [CDTA, trans 1,2-diaminocyclohexane-N,N,N′N′-tetraacetic acid]",effect of the chelating agent on rapid activity of the formulation against Pseudomonas aeruginosa (in words),Pseudomonas aeruginosa,further improves the effectiveness
"CC(O)(P(=O)(O)O)P(=O)(O)O [1-hydroxyethylidene-1,1-phosphonic acid]",effect of the chelating agent on rapid activity of the formulation against Pseudomonas aeruginosa (in words),Pseudomonas aeruginosa,not able to provide this improved activity
O=P(O)(O)CN(CP(=O)(O)O)CP(=O)(O)O [Aminotri (methylene-phosponic acid)],effect of the chelating agent on rapid activity of the formulation against Pseudomonas aeruginosa (in words),Pseudomonas aeruginosa; [2],not able to provide this improved activity
"O=C(O)CN(CCN(CC(=O)O)CC(=O)O)CCN(CC(=O)O)CC(=O)O [DTPA, di-ethylen-triamine-penta-acetate]",effect of the chelating agent on rapid activity of the formulation against Pseudomonas aeruginosa (in words),Pseudomonas aeruginosa; [2],not able to provide this improved activity
"O=C(O)C[C@H](NCCN[C@@H](CC(=O)O)C(=O)O)C(=O)O [EDDS, ethylendiaminedisuccinic acid]",effect of the chelating agent on rapid activity of the formulation against Pseudomonas aeruginosa (in words),Pseudomonas aeruginosa; [2],not able to provide this improved activity
CC(C)=CCC/C(C)=C/COC=O [Geranyl-formiate],antibacterial effect in formulations according to the present invention (in words),gram-negative bacteria,do not provide a sufficient antibacterial effect
same,rapid (30 s) bactericidal activity on gram-negative bacteria (class),gram-negative bacteria,without activity
CCC(=O)OC/C=C(\C)CCC=C(C)C [Geranyl-propionate],antibacterial effect in formulations according to the present invention (in words),gram-negative bacteria,do not provide a sufficient antibacterial effect
same,rapid (30 s) bactericidal activity on gram-negative bacteria (class),gram-negative bacteria,without activity
"O=C(O)CC(NC(CC(=O)O)C(=O)O)C(=O)O (stereo not drawn) [IDS, iminodisuccinic acid]",effect of the chelating agent on rapid activity of the formulation against Pseudomonas aeruginosa (in words),Pseudomonas aeruginosa; [2],not able to provide this improved activity
"O=C(O)CN(CC(=O)O)CC(=O)O [NTA, nitrilotriacetic acid]",effect of the chelating agent on rapid activity of the formulation against Pseudomonas aeruginosa (in words),Pseudomonas aeruginosa; [2],not able to provide this improved activity
CCCCCCCCCCCCOS(=O)(=O)[O-].[Na+] [Sodium dodecylsulfate],ratio (I373)/(I384) (pyrene 1:3 ratio),[1]; CONC 0.01% in water,1.11
same,ratio (I373)/(I384) (pyrene 1:3 ratio),[1]; CONC 0.02% in water,1.12
same,ratio (I373)/(I384) (pyrene 1:3 ratio),[1]; CONC 0.04% in water,1.08
same,ratio (I373)/(I384) (pyrene 1:3 ratio),[1]; CONC 0.08% in water,0.92
same,ratio (I373)/(I384) (pyrene 1:3 ratio),[1]; CONC 0.16% in water,0.78
same,ratio (I373)/(I384) (pyrene 1:3 ratio),[1]; CONC 0.31% in water,0.79
same,ratio (I373)/(I384) (pyrene 1:3 ratio),[1]; CONC 0.63% in water,0.75
same,ratio (I373)/(I384) (pyrene 1:3 ratio),[1]; CONC 1.25% in water,0.74
CC(=O)OCCC(C)CCC=C(C)C (stereo not drawn) [citronellyl-actetate],antibacterial effect in formulations according to the present invention (in words),gram-negative bacteria,do not provide a sufficient antibacterial effect
same,rapid (30 s) bactericidal activity on gram-negative bacteria (class),gram-negative bacteria,without activity
CC(C)=CCCC(C)CCOC=O (stereo not drawn) [citronellyl-formiate],antibacterial effect in formulations according to the present invention (in words),gram-negative bacteria,do not provide a sufficient antibacterial effect
same,rapid (30 s) bactericidal activity on gram-negative bacteria (class),gram-negative bacteria,without activity
CCC(=O)OCCC(C)CCC=C(C)C (stereo not drawn) [citronellyl-propionate],antibacterial effect in formulations according to the present invention (in words),gram-negative bacteria,do not provide a sufficient antibacterial effect
same,rapid (30 s) bactericidal activity on gram-negative bacteria (class),gram-negative bacteria,without activity
C=CC(C)(CCC=C(C)C)OC=O (stereo not drawn) [linalyl-formiate],antibacterial effect in formulations according to the present invention (in words),gram-negative bacteria,do not provide a sufficient antibacterial effect
same,rapid (30 s) bactericidal activity on gram-negative bacteria (class),gram-negative bacteria,without activity
C=CC(C)(CCC=C(C)C)OC(=O)CC (stereo not drawn) [linalyl-propionate],antibacterial effect in formulations according to the present invention (in words),gram-negative bacteria,do not provide a sufficient antibacterial effect
same,rapid (30 s) bactericidal activity on gram-negative bacteria (class),gram-negative bacteria,without activity
CC(C)=CCC/C(C)=C\COC=O [neryl-formiate],antibacterial effect in formulations according to the present invention (in words),gram-negative bacteria,do not provide a sufficient antibacterial effect
same,rapid (30 s) bactericidal activity on gram-negative bacteria (class),gram-negative bacteria,without activity
CCC(=O)OC/C=C(/C)CCC=C(C)C [neryl-propionate],antibacterial effect in formulations according to the present invention (in words),gram-negative bacteria,do not provide a sufficient antibacterial effect
same,rapid (30 s) bactericidal activity on gram-negative bacteria (class),gram-negative bacteria,without activity
Cocoamidopropylbetaine,ratio (I373)/(I384) (pyrene 1:3 ratio),[1]; CONC 0.01% in water,1.19
same,ratio (I373)/(I384) (pyrene 1:3 ratio),[1]; CONC 0.02% in water,1.02
same,ratio (I373)/(I384) (pyrene 1:3 ratio),[1]; CONC 0.04% in water,0.87
same,ratio (I373)/(I384) (pyrene 1:3 ratio),[1]; CONC 0.08% in water,0.80
same,ratio (I373)/(I384) (pyrene 1:3 ratio),[1]; CONC 0.16% in water,0.80
same,ratio (I373)/(I384) (pyrene 1:3 ratio),[1]; CONC 0.31% in water,0.78
same,ratio (I373)/(I384) (pyrene 1:3 ratio),[1]; CONC 0.63% in water,0.79
same,ratio (I373)/(I384) (pyrene 1:3 ratio),[1]; CONC 1.25% in water,0.78
Diisopropyl-sulfosuccinate,ratio (I373)/(I384) (pyrene 1:3 ratio),[1]; CONC 0.01% in water,1.21
same,ratio (I373)/(I384) (pyrene 1:3 ratio),[1]; CONC 0.02% in water,1.21
same,ratio (I373)/(I384) (pyrene 1:3 ratio),[1]; CONC 0.04% in water,1.20
same,ratio (I373)/(I384) (pyrene 1:3 ratio),[1]; CONC 0.08% in water,1.36
same,ratio (I373)/(I384) (pyrene 1:3 ratio),[1]; CONC 0.16% in water,1.99
same,ratio (I373)/(I384) (pyrene 1:3 ratio),[1]; CONC 0.31% in water,1.65
same,ratio (I373)/(I384) (pyrene 1:3 ratio),[1]; CONC 0.63% in water,1.48
same,ratio (I373)/(I384) (pyrene 1:3 ratio),[1]; CONC 1.25% in water,1.39
Sodium xylene sulfonate,ratio (I373)/(I384) (pyrene 1:3 ratio),[1]; CONC 0.01% in water,1.37
same,ratio (I373)/(I384) (pyrene 1:3 ratio),[1]; CONC 0.02% in water,1.46
same,ratio (I373)/(I384) (pyrene 1:3 ratio),[1]; CONC 0.04% in water,2.84
same,ratio (I373)/(I384) (pyrene 1:3 ratio),[1]; CONC 0.08% in water,1.62
same,ratio (I373)/(I384) (pyrene 1:3 ratio),[1]; CONC 0.16% in water,1.49
same,ratio (I373)/(I384) (pyrene 1:3 ratio),[1]; CONC 0.31% in water,1.43
same,ratio (I373)/(I384) (pyrene 1:3 ratio),[1]; CONC 0.63% in water,1.41
same,ratio (I373)/(I384) (pyrene 1:3 ratio),[1]; CONC 1.25% in water,1.04
